Test results reported in US9376436B2, “2-(pyridin-2yl)-1, 7-diaza-spiro [4.4] nonane-6-one compound as voltage-gated sodium channels modulators” (CONVERGENCE PHARMACEUTICALS LIMITED, priority 2011, dated 2016).
Structures can show the parent of a compound that is named as a salt. Where two headings read alike, the source gives them in different places.

Target: T1, hNaV1.7 (Homo sapiens, UniProt Q15858)
T1 construct: expressed in transfected cells; host or cells: HEK293
Test: QPatch NaV1.7 assay (whole-cell patch clamp, QPatch16x)
Format: cell-based
Details: HEK293-hNaV1.7 cells
In short: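 Automated whole-cell recordings in hNaV1.7-expressing HEK293 cells, holding at either −90 mV (mostly closed channels) or the half-inactivation voltage. Compounds applied cumulatively at four concentrations for 120 s each; peak current on 20 ms depolarisation to 0 mV fitted by Hill equation to yield pIC50.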

[1] = holding voltage V1/2 SSI (half of channels inactivated), read-out: QP Nav1.7 SSI vhalf pIC50 (converted)
[2] = holding voltage −90 mV (most channels closed), read-out: QP Nav1.7 −90 mV pIC50 (converted)

T1 sequence (Q15858 whole entry): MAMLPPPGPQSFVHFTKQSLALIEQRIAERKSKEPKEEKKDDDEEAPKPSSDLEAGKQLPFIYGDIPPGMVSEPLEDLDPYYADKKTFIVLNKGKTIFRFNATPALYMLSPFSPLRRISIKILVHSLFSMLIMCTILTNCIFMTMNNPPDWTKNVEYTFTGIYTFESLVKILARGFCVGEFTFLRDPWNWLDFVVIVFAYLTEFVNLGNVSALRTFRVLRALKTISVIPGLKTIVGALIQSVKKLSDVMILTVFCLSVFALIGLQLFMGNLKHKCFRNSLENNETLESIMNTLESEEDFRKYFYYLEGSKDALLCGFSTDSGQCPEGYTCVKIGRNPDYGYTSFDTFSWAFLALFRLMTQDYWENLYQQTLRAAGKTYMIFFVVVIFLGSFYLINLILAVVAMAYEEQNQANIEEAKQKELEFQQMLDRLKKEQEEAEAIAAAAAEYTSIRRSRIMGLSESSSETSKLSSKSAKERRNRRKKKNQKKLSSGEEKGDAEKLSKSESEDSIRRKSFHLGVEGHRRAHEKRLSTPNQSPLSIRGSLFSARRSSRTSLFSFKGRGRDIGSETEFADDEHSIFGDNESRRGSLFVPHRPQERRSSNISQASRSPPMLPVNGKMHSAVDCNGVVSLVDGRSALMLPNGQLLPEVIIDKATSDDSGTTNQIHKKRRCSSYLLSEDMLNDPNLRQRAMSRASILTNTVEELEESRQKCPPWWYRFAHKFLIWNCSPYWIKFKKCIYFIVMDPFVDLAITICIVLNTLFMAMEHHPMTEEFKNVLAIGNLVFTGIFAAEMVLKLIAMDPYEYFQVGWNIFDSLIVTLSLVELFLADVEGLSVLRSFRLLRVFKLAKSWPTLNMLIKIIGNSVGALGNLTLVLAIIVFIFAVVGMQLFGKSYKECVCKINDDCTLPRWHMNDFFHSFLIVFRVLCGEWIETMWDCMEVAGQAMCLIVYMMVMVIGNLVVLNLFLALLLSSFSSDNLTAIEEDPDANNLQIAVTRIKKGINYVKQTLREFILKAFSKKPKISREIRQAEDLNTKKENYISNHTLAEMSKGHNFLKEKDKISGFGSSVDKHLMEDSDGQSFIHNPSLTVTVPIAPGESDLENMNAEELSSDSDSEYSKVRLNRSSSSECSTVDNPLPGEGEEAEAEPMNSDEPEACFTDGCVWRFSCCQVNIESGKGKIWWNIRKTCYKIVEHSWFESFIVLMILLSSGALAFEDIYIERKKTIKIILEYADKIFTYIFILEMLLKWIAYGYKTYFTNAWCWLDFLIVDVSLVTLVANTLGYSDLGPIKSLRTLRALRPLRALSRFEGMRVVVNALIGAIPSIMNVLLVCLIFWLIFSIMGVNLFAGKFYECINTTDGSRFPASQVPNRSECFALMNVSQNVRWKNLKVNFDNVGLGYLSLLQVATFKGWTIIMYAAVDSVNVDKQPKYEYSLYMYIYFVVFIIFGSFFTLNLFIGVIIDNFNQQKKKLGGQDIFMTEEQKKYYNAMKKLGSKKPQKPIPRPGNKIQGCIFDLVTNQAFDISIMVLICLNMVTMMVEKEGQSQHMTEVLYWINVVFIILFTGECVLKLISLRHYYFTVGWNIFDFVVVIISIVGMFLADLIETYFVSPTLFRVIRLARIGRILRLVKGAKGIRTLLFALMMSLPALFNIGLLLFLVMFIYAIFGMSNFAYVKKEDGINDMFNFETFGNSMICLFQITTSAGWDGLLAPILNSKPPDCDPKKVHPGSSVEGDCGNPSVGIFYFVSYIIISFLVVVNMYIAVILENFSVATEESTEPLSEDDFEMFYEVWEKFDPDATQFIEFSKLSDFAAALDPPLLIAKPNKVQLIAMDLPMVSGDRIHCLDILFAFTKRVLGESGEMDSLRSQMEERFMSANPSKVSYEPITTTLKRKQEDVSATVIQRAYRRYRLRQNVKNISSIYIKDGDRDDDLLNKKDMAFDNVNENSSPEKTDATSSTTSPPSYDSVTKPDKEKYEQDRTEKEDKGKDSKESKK

Row | SMILES | IC50 [1] [µM] | IC50 [2] [µM]
1 | Cc1cc(-c2ccc(C(F)(F)F)cc2)cc([C@@H]2CC[C@@]3(CCNC3=O)N2C)n1 [Example 226, (2S,5S)-1-Methyl-2-[6-methyl-4-[4-(trifluoromethyl)phenyl]-2-pyridyl]-1,7-diazaspiro[4.4]nonan-6-one hydrochloride] | 12.6 | 1580
2 | COc1cc(C(F)(F)F)ccc1-c1cc([C@@H]2CC[C@]3(CCN(C)C3=O)N2)ncc1C [Example 129, (2S,5R)-2-[4-[2-Methoxy-4-(trifluoromethyl)phenyl]-5-methyl-2-pyridyl]-7-methyl-1,7-diazaspiro[4.4]nonan-6-one hydrochloride] | 20 | 200
3 | Cc1cc(-c2ccc(C(F)(F)F)cc2)cc([C@@H]2CC[C@]3(CCN(C)C3=O)N2)n1 [Example 30, (2S,5R)-7-Methyl-2-[6-methyl-4-[4-(trifluoromethyl)phenyl]-2-pyridyl]-1,7-diazaspiro[4.4]nonan-6-one hydrochloride] | 5.01 | 39.8
4 | CN1CC[C@@]2(CC[C@H](c3cc(-c4ccc(C(F)(F)F)cc4)ccn3)N2)C1=O [Example 52, (2R,5S)-7-Methyl-2-[4-(4-trifluoromethyl-phenyl)-pyridin-2-yl]-1,7-diaza-spiro[4.4]nonan-6-one hydrochloride] | 6.31 | 25.1
5 | Cc1cc(-c2cc(F)ccc2F)cc([C@H]2CC[C@@]3(CCN(C)C3=O)N2)n1 [Example 211, (2R,5S)-2-[4-(2,5-Difluorophenyl)-6-methyl-2-pyridyl]-7-methyl-1,7-diazaspiro[4.4]nonan-6-one hydrochloride] | 25.1 | 251
6 | CCOc1ccc(F)c(-c2cc(C(C)C)nc([C@H]3CC[C@]4(CCN(C)C4=O)N3)c2)c1 [Example 234, (2R,5R)-2-[4-(5-Ethoxy-2-fluoro-phenyl)-6-isopropyl-2-pyridyl]-7-methyl-1,7-diazaspiro[4.4]nonan-6-one hydrochloride] | 0.0501 | 1
7 | Cc1cc(-c2ccc(C(F)(F)F)cc2)cc([C@@H]2CC[C@]3(CCNC3=O)N2C)n1 [Example 228, (2S,5R)-1-Methyl-2-[6-methyl-4-[4-(trifluoromethyl)phenyl]-2-pyridyl]-1,7-diazaspiro[4.4]nonan-6-one hydrochloride] | 3.16 | 20
8 | CN1CC[C@@]2(CC[C@H](c3cc(-c4ccc(C(F)(F)F)cc4)c(OC(C)(C)C)cn3)N2)C1=O [Example 62, (2R,5S)-2-[5-tert-Butoxy-4-[4-(trifluoromethyl)-phenyl]-2-pyridyl]-7-methyl-1,7-diazaspiro[4.4]nonan-6-one hydrochloride] | 2 | 79.4
9 | Cc1c(-c2ccc(C(F)(F)F)cc2)ccnc1[C@H]1CC[C@@]2(CCN(C)C2=O)N1 [Example 17, (2R,5S)-7-Methyl-2-[3-methyl-4-[4-(trifluoromethyl)phenyl]-2-pyridyl]-1,7-diazaspiro[4.4]nonan-6-one hydrochloride] | 3.16 | 20
10 | CC1(C)C[C@]2(CC[C@H](c3cc(-c4ccc(C(F)(F)F)cc4)ccn3)N2)C(=O)N1 [Example 46, (2R,5R)-8,8-Dimethyl-2-[4-[4-(trifluoromethyl)phenyl]-2-pyridyl]-1,7-diazaspiro[4.4]nonan-6-one hydrochloride] | 0.794 | 10
11 | CC(C)Oc1ccc(-c2ccnc([C@@H]3CC[C@@]4(CCN(C)C4=O)N3)c2)cc1 [Example 161, (2S,5S)-2-[4-(4-Isopropoxyphenyl)-2-pyridyl]-7-methyl-1,7-diazaspiro[4.4]nonan-6-one hydrochloride] | 39.8 | 126
12 | Cc1cc(C)c(-c2ccnc([C@H]3CC[C@@]4(CCN(C)C4=O)N3)c2)c(C)c1 [Example 2, (2R,5S)-7-Methyl-2-[4-(2,4,6-trimethylphenyl)-2-pyridyl]-1,7-diazaspiro-[4.4]nonan-6-one hydrochloride] | 20 | 200
13 | CCOc1ccc(F)c(-c2ccnc([C@H]3CC[C@]4(CCN(C)C4=O)N3)c2C)c1 [Example 212, (2R,5R)-2-[4-(5-Ethoxy-2-fluoro-phenyl)-3-methyl-2-pyridyl]-7-methyl-1,7-diazaspiro[4.4]nonan-6-one hydrochloride] | 5.01 | 63.1
14 | CN1CC[C@]2(CC[C@@H](c3cc(-c4ccc(C(F)(F)F)cc4)c(OC(C)(C)C)cn3)N2)C1=O [Example 64, (2S,5R)-2-[5-tert-Butoxy-4-[4-(trifluoromethyl)-phenyl]-2-pyridyl]-7-methyl-1,7-diazaspiro[4.4]nonan-6-one hydrochloride] | 3.16 | 50.1
15 | CCc1cccc(-c2cc(C)nc([C@H]3CC[C@@]4(CCN(C)C4=O)N3)c2)c1F [Example 206, (2R,5S)-2-[4-(3-Ethyl-2-fluoro-phenyl)-6-methyl-2-pyridyl]-7-methyl-1,7-diazaspiro[4.4]nonan-6-one hydrochloride] | 10 | 63.1
16 | CCOc1ccc(F)c(-c2ccnc([C@@H]3CC[C@]4(CC[C@H](C)NC4=O)N3)c2)c1 [Example 244, hydrochloride] | 3.16 | 39.8
17 | Cc1cc(-c2cc(N3CCCC3=O)ccc2F)cc([C@H]2CC[C@@]3(CCN(C)C3=O)N2)n1 [Example 203, (2R,5S)-2-[4-[2-Fluoro-5-(2-oxopyrrolidin-1-yl)phenyl]-6-methyl-2-pyridyl]-7-methyl-1,7-diazaspiro[4.4]nonan-6-one hydrochloride] | 251 | 2000
18 | CCOc1ccc(F)c(-c2cc(C(C)C)nc([C@@H]3CC[C@]4(CCN(C)C4=O)N3)c2)c1 [Example 235, (2S,5R)-2-[4-(5-Ethoxy-2-fluoro-phenyl)-6-isopropyl-2-pyridyl]-7-methyl-1,7-diazaspiro[4.4]nonan-6-one hydrochloride] | 2 | 15.8
19 | CCOc1cc(-c2ccnc([C@H]3CC[C@@]4(CCN(C)C4=O)N3)c2)c(F)cc1F [Example 149, (2R,5S)-2-[4-(5-Ethoxy-2,4-difluoro-phenyl)-2-pyridyl]-7-methyl-1,7-diazaspiro[4.4]nonan-6-one hydrochloride] | 25.1 | 398
20 | CN1CC[C@]2(CC[C@@H](c3cc(-c4ccc(C(F)(F)F)cc4)ccn3)N2)C1=O [Example 54, (2S,5R)-7-Methyl-2-[4-(4-trifluoromethyl-phenyl)-pyridin-2-yl]-1,7-diaza-spiro[4.4]nonan-6-one hydrochloride] | 39.8 | 63.1
21 | CCOc1ccc(F)c(-c2cc([C@@H]3CC[C@@]4(CCN(C)C4=O)N3)ncc2C)c1 [Example 138, (2S,5S)-2-[4-(5-Ethoxy-2-fluoro-phenyl)-5-methyl-2-pyridyl]-7-methyl-1,7-diazaspiro[4.4]nonan-6-one hydrochloride] | 25.1 | 200
22 | CN1CC[C@@]2(CC[C@H](c3cc(-c4ccc(C5(C#N)CC5)cc4)ccn3)N2)C1=O [Example 171, 1-[4-[2-[(2R,5S)-7-Methyl-6-oxo-1,7-diazaspiro[4.4]nonan-2-yl]-4-pyridyl]phenyl]cyclopropanecarbonitrile hydrochloride] | 50.1 | 158
